Experimental data published in patent publication US8053197B2, “Methods for detecting and treating autoimmune disorders” (Oregon Health & Science University, priority 2004, dated 2011).

Tests used:
Foxp3 [1] = assay: Foxp3 expression in CD4+ T cells of E2-treated, MOG-35-55 immunized mice at peak of EAE; type: in vivo, C57BL/6 mice; details: peak of disease
Procedure: FIG. 2 is a graph illustrating real-time RT-PCR analysis of Foxp3. C57BL/6 and Esr^−/− mice were implanted with placebo or 2.5 mg E2 pellets and immunized 1 week later with 200 μg MOG-35-55 peptide in CFA with pertussis toxin on days 0 and +2. At the peak of clinical disease, mice were sacrificed and splenocytes sorted for CD4+ cells. cDNA was prepared and analyzed by real-time PCR to determine Foxp3 mRNA levels. Data are presented as Foxp3 relative to housekeeping gene L32. Error bars are standard deviation of triplicate samples.
Control lane is lysate of 293T cells transfected with Foxp3 cDNA. The CD25+ fraction (among CD4+) of each sample is noted above bars.
Female naïve or syngeneic pregnant (19 days) C57BL/6 mice were purchased from Jackson Laboratory (Bar Harbor, Me.). Estrogen receptor alpha knockout (Esrl^−/−) mice were purchased from Taconic (Germantown, N.Y.). Most experiments represent cells pooled from at least five mice per experimental condition.
For E2 therapy, a 3 mm pellet containing 2.5 mg or 15 mg (as indicated) 17β-estradiol (Innovative Research of America, Sarasota, Fla.) was implanted s.c. (dorsally) 7 days prior to immunization (EAE) or 14 days prior to analysis of naïve mice. These pellets are designed to release their contents at a constant rate over 60 days. Control animals were implanted with pellets containing saline. Serum levels of E2 were monitored by RIA. […]
For real-time RT-PCR analysis, total RNA was prepared using the Total RNeasy kit (Qiagen, Germantown, Md.) and cDNA was prepared using random hexamer primers (Invitrogen, Grand Island, N.Y.). Foxp3 message expression was quantified using the ABI 7000 Real-Time PCR System (Applied Biosystems, Foster City, Calif.). Amplification was performed in a total volume of 25 μl for 40 cycles and products were detected using SYBR Green I dye (Molecular Probes, Eugene, Oreg.). Samples were run in triplicate and relative expression level was determined by normalization to L32 with results presented as relative expression (RE) units. […]

Foxp3 [2] = assay: E2 induction of Foxp3 in vitro in purified CD4+CD25− T cells (real-time RT-PCR); type: cell-based, mice
Procedure: FIG. 1 is a graph illustrating real-time RT-PCR analysis of Foxp3 expression in vitro in purified (>99%) CD4+CD25− T cells. E2 in combination with TCR stimulation by anti-CD3 antibody for 24 hours induced Foxp3 mRNA approximately 3-fold over levels in untreated cells or in anti-CD3 stimulated cells in the absence of E2. Foxp3 levels are shown relative to the housekeeping gene L32. Error bars are standard deviation of triplicate samples. One representative result of three is shown.
The capacity of E2 to induce Foxp3 expression in vitro in purified (>99%) CD4+CD25− T cells was tested. […]
For real-time RT-PCR analysis, total RNA was prepared using the Total RNeasy kit (Qiagen, Germantown, Md.) and cDNA was prepared using random hexamer primers (Invitrogen, Grand Island, N.Y.). Foxp3 message expression was quantified using the ABI 7000 Real-Time PCR System (Applied Biosystems, Foster City, Calif.). Amplification was performed in a total volume of 25 μl for 40 cycles and products were detected using SYBR Green I dye (Molecular Probes, Eugene, Oreg.). Samples were run in triplicate and relative expression level was determined by normalization to L32 with results presented as relative expression (RE) units. […] FoxP3 was detected with rabbit-anti-FoxP3 antiserum and standard chemiluminescence. […]

## C[C@]12CC[C@@H]3c4ccc(O)cc4CC[C@H]3[C@@H]1CC[C@@H]2O [E2, 17β-estradiol]
Foxp3 [1]; Esr1−/− mice lacking estrogen receptor-α, MOG-35-55 immunized
  Foxp3 mRNA levels in CD4+ T cells increased: not
Foxp3 [1]; western blot and flow cytometry
  FoxP3 protein expression and CD25+ number in E2-treated mice, Esr1−/− versus wild-type: substantially lower
Foxp3 [1]; wild-type C57BL/6 mice, MOG-35-55 immunized, versus placebo
  Foxp3 mRNA levels in CD4+ T cells: significantly increased
Foxp3 [2]
  fraction of CD25+ cells over TCR stimulation alone: increased
Foxp3 [2]; E2 in combination with anti-CD3 antibody for 24 hours, relative to L32
  Foxp3 mRNA induction over levels in untreated cells: approximately 3 fold
